Laboratory results from ChEMBL document CHEMBL6078637, “Cyclic Diguanylate G-Quadruplex Inducer-Quorum Sensing Inhibitor Hybrids as Bifunctional Anti-biofilm and Anti-virulence Agents Against Pseudomonas aeruginosa” (J Med Chem, 2024).
Calls of active or inactive are those of the source. The rule behind the calls is not given here.

Key:
[1] = test system: Pseudomonas aeruginosa; test: Antibacterial activity against Pseudomonas aeruginosa PAO1 incubated for 24 hrs by absorbance based assay; format: functional
[2] = Inhibition of quorum sensing system in Pseudomonas aeruginosa PAO1 harboring mini-ctx-lasB-lacZ at 10 uM measured after 16 hrs by ONPG test relative to control
[3] = test system: Pseudomonas aeruginosa; test: Antibiofilm activity against Pseudomonas aeruginosa PAO1 harboring wspF mutant assessed as inhibition rate at 10 uM incubated for 24 hrs by absorbance based assay relative to control; format: functional
[4] = test system: Pseudomonas aeruginosa; test: Antibiofilm activity against Pseudomonas aeruginosa PAO1 harboring wspF mutant assessed as inhibition rate at 1.25 uM incubated for 24 hrs by absorbance based assay relative to control; format: functional
[5] = Toxicity in Caenorhabditis elegans infected with hyper-biofilm phenotype Pseudomonas aeruginosa PAO1 harboring wspF mutant assessed as nematode death at 10 uM incubated for 48 hrs in presence of TOB
[6] = test system: Pseudomonas aeruginosa; test: Synergistic inhibition of bacterial virulence of Pseudomonas aeruginosa PAO1 infected in Caenorhabditis elegans upto 10 uM incubated for 36 hrs in presence of TOB; format: functional, organism-based
[7] = test system: Pseudomonas aeruginosa; test: Synergistic inhibition of bacterial virulence of hyper-biofilm phenotype Pseudomonas aeruginosa PAO1 harboring wspF mutant upto 10 uM incubated for 36 hrs in presence of TOB; format: functional, organism-based
[8] = test system: Pseudomonas aeruginosa; test: Antivirulence activity against Pseudomonas aeruginosa PAO1 assessed as reduction in hemolysin level at 10 uM preincubated for 24 hrs followed by addition of erythrocytes measured after 30 mins by absorbance based analysis relative to control; format: functional; design: scale not given: the % may be the effect or the level left
[9] = test system: Pseudomonas aeruginosa; test: Antivirulence activity against Pseudomonas aeruginosa PAO1 assessed as reduction in elastase level at 10 uM incubated for 24 hrs by elastin-Congo red staining based analysis relative to control; format: functional; design: scale not given: the % may be the effect or the level left
[10] = test system: Pseudomonas aeruginosa; test: Synergistic antibacterial activity against Pseudomonas aeruginosa PAO1 assessed as bacterial growth inhibition at 20 uM incubated for 24 hrs in presence of tetracycline by CFU counting method; format: functional, organism-based
[11] = test system: Pseudomonas aeruginosa; test: Antivirulence activity against Pseudomonas aeruginosa PAO1 assessed as reduction in elastase level incubated for 24 hrs by elastin-Congo red staining based analysis; format: functional, organism-based; settings: dose <= 10.0 µM
[12] = test system: Pseudomonas aeruginosa; test: Inhibition of swarming motility of Pseudomonas aeruginosa PAO1 incubated overnight; format: functional, organism-based; settings: dose <= 10.0 µM
[13] = test system: Pseudomonas aeruginosa; test: Inhibition of twitching motility of Pseudomonas aeruginosa PAO1 at 10 uM incubated overnight by crystal voilet staining based analysis; format: functional, organism-based
[14] = test system: Pseudomonas aeruginosa; test: Antivirulence activity against Pseudomonas aeruginosa PAO1 assessed as reduction in rhamnolipid level incubated for 24 hrs by orcinol based analysis; format: functional, organism-based; settings: dose <= 10.0 µM
[15] = Hemolytic activity in rabbit erythrocytes assessed as damage in cell membrane integrity at 100 uM incubated for 4 hrs by absorbance based assay; format: toxicity, Oryctolagus cuniculus; settings: erythrocyte
[16] = test system: DNA; test: Binding affinity to pBR322 DNA (unknown origin) assessed as DNA embedding toxicity at 50 uM preincubated for 10 mins followed by Topo I addition measured after 1 hr by TO dye based PAGE analysis; format: nucleic-acid assay; settings: time 70.0 min
[17] = Toxicity in Caenorhabditis elegans infected with Pseudomonas aeruginosa PAO1 assessed as reduction in nematode mortality rate at 10 uM incubated for 48 hrs in presence of TOB; design: scale not given: the % may be the effect or the level left
[18] = test system: Pseudomonas aeruginosa; test: Inhibition of beta-galactosidase in Pseudomonas aeruginosa PAO1 harboring mini-ctx-lasB-lacZ at 10 uM incubated for 6 hrs by ONPG test relative to control
[19] = test system: Pseudomonas aeruginosa; test: Inhibition of beta-galactosidase in Pseudomonas aeruginosa PAO1 harboring mini-ctx-pqsA-lacZ incubated for 6 hrs by ONPG test; settings: dose <= 10.0 µM
[20] = test system: Pseudomonas aeruginosa; test: Antibiofilm activity against Pseudomonas aeruginosa PAO1 harboring wspF mutant incubated for 24 hrs by absorbance based assay; format: functional, organism-based
[21] = test system: DNA; test: Binding affinity to pBR322 DNA (unknown origin) assessed as DNA migration at 50 uM preincubated for 10 mins followed by Topo I addition measured after 1 hr by TO dye based PAGE analysis; format: nucleic-acid assay; settings: time 70.0 min
[22] = test system: Pseudomonas aeruginosa; test: Inhibition of beta-galactosidase in Pseudomonas aeruginosa PAO1 harboring mini-ctx-pqsA-lacZ at 10 uM incubated for 6 hrs by ONPG test relative to control
[23] = test system: Vero; test: Cytotoxicity against African green monkey Vero cells at 12.5 uM incubated for 24 hrs by MTT assay; format: toxicity, cell-based; settings: chlorocebus sabaeus
[24] = Toxicity in Caenorhabditis elegans infected with Pseudomonas aeruginosa PAO1 assessed as nematode survival at 10 uM incubated for 48 hrs
[25] = test system: Pseudomonas aeruginosa; test: Inhibition of beta-galactosidase in Pseudomonas aeruginosa PAO1 harboring mini-ctx-lasB-lacZ incubated for 6 hrs by ONPG test; settings: dose <= 10.0 µM
[26] = test system: Pseudomonas aeruginosa; test: Inhibition of beta-galactosidase in Pseudomonas aeruginosa PAO1 harboring mini-ctx-rhlA-lacZ at 10 uM incubated for 6 hrs by ONPG test relative to control
[27] = Toxicity in Caenorhabditis elegans infected with hyper-biofilm phenotype Pseudomonas aeruginosa PAO1 harboring wspF mutant assessed as nematode death at 10 uM incubated for 48 hrs in presence of tetracycline
[28] = test system: Pseudomonas aeruginosa; test: Inhibition of beta-galactosidase in Pseudomonas aeruginosa PAO1 harboring mini-ctx-lacZ at 10 uM incubated for 6 hrs by ONPG test relative to control
[29] = test system: Pseudomonas aeruginosa; test: Inhibition of swimming motility of Pseudomonas aeruginosa PAO1 incubated overnight; format: functional, organism-based; settings: dose <= 10.0 µM
[30] = test system: Pseudomonas aeruginosa; test: Antivirulence activity against Pseudomonas aeruginosa PAO1 assessed as reduction in pyocyanin level incubated for 24 hrs by absorbance based assay; format: functional, organism-based; settings: dose <= 10.0 µM
[31] = test system: Pseudomonas aeruginosa; test: Antivirulence activity against Pseudomonas aeruginosa PAO1 assessed as reduction in rhamnolipid level at 10 uM incubated for 24 hrs by orcinol based analysis; format: functional, organism-based
[32] = test system: Pseudomonas aeruginosa; test: Inhibition of twitching motility of Pseudomonas aeruginosa PAO1 incubated overnight by crystal voilet staining based analysis; format: functional, organism-based; settings: dose <= 10.0 µM
[33] = test system: Pseudomonas aeruginosa; test: Inhibition of swimming motility of Pseudomonas aeruginosa PAO1 at 10 uM incubated overnight relative to control; format: functional
[34] = Toxicity in Caenorhabditis elegans assessed as nematode survival upto 100 uM incubated for 96 hrs
[35] = test system: Pseudomonas aeruginosa; test: Inhibition of swarming motility of Pseudomonas aeruginosa PAO1 at 10 uM incubated overnight; format: functional, organism-based
[36] = test system: Pseudomonas aeruginosa; test: Synergistic inhibition of bacterial virulence of Pseudomonas aeruginosa PAO1 infected in Caenorhabditis elegans upto 10 uM incubated for 36 hrs in presence of tetracycline; format: functional, organism-based
[37] = test system: Pseudomonas aeruginosa; test: Synergistic inhibition of bacterial virulence of hyper-biofilm phenotype Pseudomonas aeruginosa PAO1 harboring wspF mutant upto 10 uM incubated for 36 hrs in presence of tetracycline; format: functional, organism-based
[38] = Toxicity in Caenorhabditis elegans infected with Pseudomonas aeruginosa PAO1 assessed as nematode survival at 10 uM incubated for 48 hrs in presence of tetracycline

## C[n+]1c(/C=C/c2c[nH]c3ccc([N+](=O)[O-])cc23)ccc2ccccc21
[1]
  MIC: > 128 µM
[2]
  inhibition: 4.62%

## C[n+]1c(/C=C/c2c[nH]c3ccc(Br)cc23)ccc2ccccc21
[1]
  MIC: > 128 µM
[2]
  inhibition: 2.52%

## CC[C@H]1OC(=O)[C@H](C)[C@@H](O[C@H]2C[C@@](C)(OC)[C@@H](O)[C@H](C)O2)[C@H](C)[C@@H](O[C@@H]2O[C@H](C)C[C@H](N(C)C)[C@H]2O)[C@](C)(O)C[C@@H](C)CN(C)[C@H](C)[C@@H](O)[C@]1(C)O [AZITHROMYCIN]
[3]
  inhibition at 10 µM: 43.9%

## C[n+]1c(/C=C/c2ccc3ocnc3c2)sc2ccccc21
[1]
  MIC: > 128 µM
[2]
  inhibition: 1.14%

## C[n+]1c(/C=C/c2c[nH]c3ccc(Cl)cc23)ccc2ccccc21
[1]
  MIC: > 128 µM
[2]
  inhibition: 4.53%

## C[n+]1c(/C=C/c2c[nH]c3ccccc23)sc2ccccc21
[1]
  MIC: > 128 µM
[4]
  inhibition at 1.25 µM: ~21%
[2]
  inhibition: 20.9%

## C[n+]1c(/C=C/c2cc3ccccc3[nH]2)ccc2ccccc21
[1]
  MIC: > 128 µM
[2]
  inhibition: 1.42%

## C[n+]1c(/C=C/c2ccc3c(c2)CCO3)sc2ccccc21
[1]
  MIC: > 128 µM
[2]
  inhibition: 3.6%

## C[n+]1c(/C=C/c2c[nH]c3cc(F)ccc23)ccc2ccccc21
[1]
  MIC: > 128 µM
[4]
  inhibition at 1.25 µM: ~21%
[2]
  inhibition: 9.14%

## COc1ccc2[nH]cc(/C=C/c3ccc4ccccc4[n+]3C)c2c1
[1]
  MIC: > 128 µM
[4]
  inhibition at 1.25 µM: ~21%
[2]
  inhibition: 16.6%

## C[n+]1c(/C=C/c2ccc3nc[nH]c3c2)sc2ccccc21
[1]
  MIC: > 128 µM
[2]
  inhibition: 3.2%

## C[n+]1c(/C=C/c2ccc3ccc(=O)oc3c2)ccc2ccccc21
[1]
  MIC: > 128 µM
[2]
  inhibition: 2.74%

## C[n+]1c(/C=C/c2cc3ccccc3[nH]2)sc2ccccc21
[1]
  MIC: > 128 µM
[2]
  inhibition: 2.23%

## C[n+]1c(/C=C/c2cccc3ocnc23)ccc2ccccc21
[1]
  MIC: > 128 µM
[2]
  inhibition: 2.91%

## C[n+]1c(/C=C/c2c[nH]c3ccc(O)cc23)ccc2ccccc21
[1]
  MIC: > 128 µM
[2]
  inhibition: 7.32%

## C[n+]1c(/C=C/c2c[nH]c3ccc(F)cc23)ccc2ccccc21.[I-]
[5]
  Activity: Non-toxic
[1]
  MIC: > 128 µM
[6]
  Activity: Active
[7]
  Activity: Active
[8]
  Activity: 51.3%
[9]
  Activity: 48.51%
[10]
  Activity: Active
[11]
  Activity: Dose-dependent-effect
[12]
  inhibition: Dose-dependent-effect
[13]
  inhibition: Active; Exhibited Only A Modest Impact
[14]
  Activity: Dose-dependent-effect
[15]
  Activity: Non-toxic
[4]
  inhibition at 1.25 µM: ~21%
[16]
  Activity: Not toxic
[17]
  Activity: ~ 50%
[18]
  inhibition: 30%
[19]
  inhibition: Dose-dependent-effect
[20]
  inhibition: Dose-dependent-effect
[20]; PAO1, 24 h
  IC50: 23.4 µM
[21]
  Activity: Not toxic
[3]
  inhibition at 10 µM: ~40%
[2]
  inhibition: 40.3%
[22]
  inhibition: 30%
[23]
  Activity: Non-toxic
[24]
  Activity: Toxic
[25]
  inhibition: Dose-dependent-effect
[26]
  inhibition: 10%
[27]
  Activity: Non-toxic
[28]
  inhibition: 8.03%
[29]
  inhibition: Dose-dependent-effect
[30]
  Activity: Dose-dependent-effect
[31]
  Activity: Active; Exhibited Relatively Modest Activity
[32]
  inhibition: Dose-dependent-effect
[33]
  inhibition at 10 µM: 22.4%
[34]
  Activity: Non-toxic
[35]
  inhibition: Active; Inhibitory Effect Was Comparable To Qs Deficient Pao1 Double Mutant Lasi/Rhli
[36]
  Activity: Active
[37]
  Activity: Active
[38]
  Survival: 86.3%

## C[n+]1c(/C=C/c2coc3ccccc3c2=O)sc2ccccc21
[1]
  MIC: > 128 µM
[2]
  inhibition: 7.3%

## C[n+]1c(/C=C/c2ccc3nc[nH]c3c2)ccc2ccccc21
[1]
  MIC: > 128 µM
[2]
  inhibition: 1.69%

## C[n+]1c(/C=C/c2cccc3c2CCO3)ccc2ccccc21
[1]
  MIC: > 128 µM
[2]
  inhibition: 9.4%

## C[n+]1c(/C=C/c2c[nH]c3cc(Br)ccc23)ccc2ccccc21
[1]
  MIC: > 128 µM
[4]
  inhibition at 1.25 µM: ~21%
[2]
  inhibition: 0.5%

## Cc1ccc2[nH]cc(/C=C/c3ccc4ccccc4[n+]3C)c2c1
[1]
  MIC: > 128 µM
[4]
  inhibition at 1.25 µM: ~21%
[2]
  inhibition: 17%

## C[n+]1c(/C=C/c2cscn2)sc2ccccc21
[1]
  MIC: > 128 µM
[2]
  inhibition: 3.65%

## C[n+]1c(/C=C/c2coc3ccccc3c2=O)ccc2ccccc21
[1]
  MIC: > 128 µM
[2]
  inhibition: 1.21%

## Cc1cc(=O)c(O)c(/C=C/c2ccc3ccccc3[n+]2C)o1
[1]
  MIC: > 128 µM
[2]
  inhibition: 4.86%

## Cc1ccc2c(/C=C/c3ccc4ccccc4[n+]3C)c[nH]c2c1
[1]
  MIC: > 128 µM
[4]
  inhibition at 1.25 µM: ~21%
[2]
  inhibition: 16.2%

## C[n+]1c(/C=C/c2cc(=O)c(O)co2)sc2ccccc21
[1]
  MIC: > 128 µM
[2]
  inhibition: 4.1%

## C[n+]1c(/C=C/c2cscn2)ccc2ccccc21
[1]
  MIC: > 128 µM
[2]
  inhibition: 4.55%

## C[n+]1c(/C=C/c2ccc3ccc(=O)oc3c2)sc2ccccc21
[1]
  MIC: > 128 µM
[2]
  inhibition: 2.42%

## C[n+]1c(/C=C/c2cc(=O)c(O)co2)ccc2ccccc21
[1]
  MIC: > 128 µM
[2]
  inhibition: 0.45%

## Cc1cc(=O)c(O)c(/C=C/c2sc3ccccc3[n+]2C)o1
[1]
  MIC: > 128 µM
[2]
  inhibition: 7.78%

## COc1ccc2c(/C=C/c3ccc4ccccc4[n+]3C)c[nH]c2c1
[1]
  MIC: > 128 µM
[4]
  inhibition at 1.25 µM: ~21%
[2]
  inhibition: 17.9%

## C[n+]1c(/C=C/c2c[nH]c3cc(Cl)ccc23)ccc2ccccc21
[1]
  MIC: > 128 µM
[2]
  inhibition: 3.02%
